Experimental data taken from US12213501B2, “Methods for modifying high intensity sweetener glycosides” (Optibiotix Limited, priority 2018, dated 2025).
Marks after values point to notes of the source that are not given here.

How the values were obtained:
trained sensory panel = test: Sensory profiling (QDA) of sweetener samples by trained sensory panel; assay type: in vivo, human; details: for Mean Rating (0-100): sweetness as agreed by the panel; for Sweet Taste Intensity: Table 3, concentration printed 0.032 g/L (steviol glycosides samples) or 0.024 g/L (others); for ES (equivalent sucrose concentration): from mean sweetness rating via Sweetness=15.5 (sucrose)-22.5; for ES (equivalent sucrose concentration) / Potency: concentration 0.032 or 0.024 g/L; for Bitter Taste / Cardboard/Stale Flavour / Cooked sugar flavour / Cooling Sensation / Crusty Bread Flavour / Liquorice Flavour / Metallic / Overall Strength of Off Taste/Flavour / Perfume Flavour / Salty Taste / Sour Taste / Sweet Taste / Bitter Aftertaste / Cooling Aftereffect / Liquorice Aftereffect / Sweet Aftertaste: mean rating, line scale 0-100, Stevia samples 0.32 g/L, Reb and Mogroside samples 0.24 g/L water; for Bitter Aftertaste / Cooling Aftereffect / Liquorice Aftereffect / Sweet Aftertaste: scored after 30 second delay; for Potency: sweet potency relative to sucrose; for liquorice flavour compared between sweeteners: unmodified sweeteners
[1] = Initial tasting against sucrose standards; assay type: in vivo; details: all samples at 0.32 g/L, compared with Steviol glycosides
Procedure: For the initial tasting sucrose standards were prepared at 4, 6, 8 and 10% (w/v) sucrose. Aiming for 8% sucrose equivalence all HIS and enzyme modified samples were also prepared at 0.32 g/L. From the initial tasting it had been concluded that the sucrose standard range needed to be reduced to 2, 4, 6 and 8% as the 10% sample was too extreme.

[2] = reported; cited from earlier work
[3] = Reported bitterness of steviol glycosides and sucrose equivalence (literature); assay type: in vivo, human
Excerpt: Often sweeteners are compared to sucrose at 8% sucrose equivalent (Prakash, G. E. DuBois, J. F. Clos, K. L. Wilkens, L. E. Fosdick. (2008). Development of rebiana, a natural, non-caloric sweetener. Food and Chemical Toxicology. Volume 46, Issue 7, Pages S75-S82. Previous literature (Caroline Hellfritsch, Anne Brockhoff, Frauke Stähler, Wolfgang Meyerhof, and Thomas Hofmann (2012). Human Psychometric and Taste Receptor Responses to Steviol Glycosides. Journal of Agricultural and Food Chemistry 2012 60 (27), 6782-6793) has shown bitterness of steviol glycosides to be most obvious at around 1000 μM which for Rebaudioside A would be 0.97 g/L, equivalent to 24% sucrose. However, solutions of 100 μM are also bitter which for Rebaudioside A would be 0.097 g/L, equivalent to 2.4% sucrose. Therefore, it was decided to test solutions at equivalent sweetness levels above 2% sucrose to ensure that both sweetness and bitterness could be evaluated in levels applicable to final application.

[4] = modified high intensity sweetener compared to un-modified

SMILES	sweetness in initial tasting [1]	sweet potency relative to sucrose [2]	effect of enzyme modification on sweetness (trained sensory panel; CGTase modified vs unmodified)	Sweet Taste Intensity (trained sensory panel)	ES (equivalent sucrose concentration) (trained sensory panel)	Bitter Taste (trained sensory panel)	Cardboard/Stale Flavour (trained sensory panel)	Cooked sugar flavour (trained sensory panel)	Cooling Sensation (trained sensory panel)	Crusty Bread Flavour (trained sensory panel)	Liquorice Flavour (trained sensory panel)	Metallic (trained sensory panel)	Overall Strength of Off Taste/Flavour (trained sensory panel)	Perfume Flavour (trained sensory panel)	Salty Taste (trained sensory panel)	Sour Taste (trained sensory panel)	Sweet Taste (trained sensory panel)	Bitter Aftertaste (trained sensory panel)	Cooling Aftereffect (trained sensory panel)	Liquorice Aftereffect (trained sensory panel)	further results
OC[C@H]1O[C@@](CO)(O[C@H]2O[C@H](CO)[C@@H](O)[C@H](O)[C@H]2O)[C@@H](O)[C@@H]1O [Sucrose]																					Mean Rating (0-100) (trained sensory panel; sucrose standard 1, 2.0 % w/v): 10; Mean Rating (0-100) (trained sensory panel; sucrose standard 2, 4.0 % w/v): 35; Mean Rating (0-100) (trained sensory panel; sucrose standard 3, 6.0 % w/v): 75; Mean Rating (0-100) (trained sensory panel; sucrose standard 4, 8.0 % w/v): 100
C[C@H](CC[C@@H](O[C@@H]1O[C@H](CO[C@@H]2O[C@H](CO)[C@@H](O)[C@H](O)[C@H]2O)[C@@H](O)[C@H](O)[C@H]1O[C@@H]1O[C@H](CO)[C@@H](O)[C@H](O)[C@H]1O)C(C)(C)O)[C@H]1CC[C@@]2(C)[C@@H]3CC=C4[C@@H](CC[C@H](O[C@@H]5O[C@H](CO[C@@H]6O[C@H](CO)[C@@H](O)[C@H](O)[C@H]6O)[C@@H](O)[C@H](O)[C@H]5O)C4(C)C)[C@]3(C)[C@H](O)C[C@]12C [Mogroside, Mogroside V]	considered sweeter than the Steviol glycosides	~400 ×	reduced the sweetness	47.3	4.5%	7.3^c	0.7^c	3.2^ab	2.6^ab	3.3^a	21.4^a	3.4^b	25.6^cd	0.3^a	0.8^a	1.2^b	47.3^b	4.6^c	1.6^ab	10.8^bc	effect of enzymatic modification on liquorice flavour (trained sensory panel; CGTase modified vs unmodified): significantly reduced; Sweet Aftertaste (trained sensory panel): 28.2^b; Bitter taste: reduction % (trained sensory panel; [4]): 0%; Bitter taste: reduction ratio (trained sensory panel; [4]): 0; Liquorice taste: reduction % (trained sensory panel; [4]): 41%; Liquorice taste: reduction ratio (trained sensory panel; [4]): 1.7; Metallic: reduction % (trained sensory panel; [4]): 67%; Metallic: reduction ratio (trained sensory panel; [4]): 3; Potency (trained sensory panel): 188; liquorice flavour compared between sweeteners (trained sensory panel): equivalent in liquorice flavour
C=C1C[C@@]23CC[C@H]4[C@@](C)(CCC[C@@]4(C)C(=O)O[C@@H]4O[C@H](CO)[C@@H](O)[C@H](O)[C@H]4O)[C@@H]2CC[C@]1(O[C@@H]1O[C@H](CO)[C@@H](O)[C@H](O[C@@H]2O[C@H](CO)[C@@H](O)[C@H](O)[C@H]2O)[C@H]1O[C@@H]1O[C@H](CO)[C@@H](O)[C@H](O)[C@H]1O)C3 [Reb, Rebaudioside A]	considered sweeter than the Steviol glycosides	~250 ×	reduced the sweetness	60.3	5.3%	10.8^bc	0.6^c	3.9^a	4.7^a	0.5^bc	24.2^a	2.7^bc	31.9^bc	0.4^a	1.6^a	0.9^b	60.3^a	6.5^bc	2.1^a	11.6^bc	equivalent sucrose ([3]; 100 μM = 0.097 g/L): 2.4 % sucrose; equivalent sucrose ([3]; 1000 μM = 0.97 g/L): 24 % sucrose; sweetness compared between sweeteners (trained sensory panel; Rebaudioside A 0.24 g/L vs Steviol glycosides 0.32 g/L and Mogroside V 0.24 g/L): significantly more sweet; Sweet Aftertaste (trained sensory panel): 34.8^a; Potency (trained sensory panel): 223; liquorice flavour compared between sweeteners (trained sensory panel): equivalent in liquorice flavour
